Reference: patent US10517952B2, “Nucleophile-triggered degradable materials and methods of making and using the same” (GEORGIA TECH RESEARCH CORPORATION, priority 2014, dated 2019)

Key:
Assay type in all cases: physicochemical
[1] = Erosion of swollen hydrogels (BODIPY erosion probe, time-lapse photography); conditions: poorly controlled BODIPY labeling protocol
Source text: Degradation behavior of PEG-OND hydrogels under swelling conditions was investigated by labeling 3% of the 4-PEG-SH thiols with a BODIPY fluorophore via maleimide coupling before gelation. Gels prepared from this material are expected to have slightly lower crosslink densities and to degrade sooner when compared to gels formed without the erosion probe (FIG. 19). However, the probe-labeled macromer allowed convenient monitoring and comparison of erosion behavior under conditions relevant for biological applications. An increase in absorbance (504 nm) of the swelling buffer was observed as pieces containing the labeled PEG-thiol components were detached from the gel by rDA fragmentation (FIG. 2). […] Using combinations of linkers, it was possible to produce hydrogels with release profiles tuned between those of gels prepared from a single linker (FIG. 2C).
The 3.76 wt % solution of BODIPY-labeled 4-PEG-SH prepared above was used to form hydrogels using a method identical to unlabeled gels. Briefly, BODIPY-labeled 4-PEG-SH was combined with DMSO stocks of multivalent ONDs at equimolar concentration of thiol and electrophile. […] The absorbance of the supernatant at 504 nm was measured immediately to obtain a baseline measurement (t=0 hours), and the samples were placed into a 37° C. incubator. The absorbance of the swelling supernatant was monitored periodically by removal of 1 mL of buffer into a cuvette and measuring absorbance of the sample at 504 nm. […] This process was repeated for each sample until gel degradation was complete and the absorbance at 504 nm stabilized (100% dye released). In order to estimate the fraction of dye released from the non-degradable gel formed with bi s-EONB 8, a mock endpoint sample consisting of BODIPY-labeled 4-PEG-SH diluted to 3.5 wt % was prepared, and the absorbance at 504 nm was measured. […] The absorbance values collected over the course of the experiment were divided by the absorbance value measured after gel disintegration to obtain fractional dye release versus time. […]
The time at which the glass bead reached the bottom of the tube was recorded. […]

[2] = Oscillatory rheology of PEG-OND hydrogels; conditions: pH 7.2, 37° C., strain 1%, 1 rad/sec, after 2-3 hours
Procedure: Oscillatory rheology was used to assess the viscoelastic properties of selected PEG-OND hydrogels. […] The truncated cone was then brought in contact with the bis-EONB/4-PEG-SH mixture before setting of the gel by positioning the tool at the measuring position. The sample was inspected for spillovers and trimmed as required. A preliminary preshearing step consisting of 30 seconds at 0.1% strain and ω=0.01 rad/s was performed to ensure good contact with the gel sample. The elastic (storage) and viscous (loss) moduli, G′ and G″, respectively, were then measured as a function of time for a constant strain of 1% and an angular frequency of 1 rad/sec. The ability to store energy is described by G′, while the amount of energy dissipated is related with G″. It was observed that the sample experienced a rapid transformation from an initial state in which G′ was not much larger than G″ to a state in which G′ was clearly predominant, as shown in FIG. 5; this is consistent with gelation. The observed transformation happened in the first few minutes after preparation, even when the hydrogel continued to rigidify for up to 2-3 hours.
The linear regime of this sample was determined by performing an oscillatory strain sweep at 37° C. The frequency sweep shown in the main text was thus performed in the linear region.
[…] In both experiments, G′>>G″.

[3] = Gelation of 4-PEG-SH with OND linkers, gelation time by inversion test; conditions: neutral water, 17% DMSO, stoichiometric triethylamine added, room temperature
Procedure: PEG-OND hydrogels were prepared by mixing tetravalent thiol-terminated PEG (4-PEG-SH, Mw˜2,500 Da for each arm) at 3.5 weight percent and multivalent OND linkers at equimolar concentration of thiol and electrophile in phosphate buffer containing 7% DMSO by volume (FIG. 42). The reactions were mixed briefly and the gel was allowed to cure at temperature or 37° C. Gelation time was recorded as the point at which the sample no longer flowed upon inversion of the reaction vessel.
Trial gelations were performed by premixing a solution of linker 7a with four-armed thiol-terminated poly(ethylene glycol) (4-PEG-SH. Mn=10,000) in neutral water containing 17% DMSO by volume. The overall concentration of PEG macromer was varied from 0.4 wt % to 8.3 wt % while maintaining an equimolar ratio of thiol to electrophile. Under these conditions, no gels formed on standing at room temperature for five minutes.
Based on empirical observations made in these trials, subsequent gels were prepared at room temperature from 3.5 wt % 4-PEG-SH solutions in phosphate buffers containing 7% DMSO at equimolar concentrations of thiol and OND electrophile. Mixtures were mixed briefly with a vortex mixer, and the reaction vial was periodically tilted or inverted. Gelation time was recorded when the sample no longer flowed and was self-supporting. […] Gelation time at 37° C. was determined by pre-warming 4-PEG-SH macromer and OND stock solutions in a 37° C. water bath. Gel components were combined and mixed briefly by pipetting, and the sample was held in the water bath. Gelation time was determined by the inversion test, as described above.
The labeled protein solutions prepared as described in the previous section were diluted three-fold with pH 7.4 100 mM phosphate buffer and used to dissolve the 4-PEG-SH macromer at 3.76 wt %. This solution was used in an identical manner as pure 4-PEG-SH solution for the purpose of forming PEG-OND hydrogels (FIG. 45). All samples formed self-supporting hydrogels within 1 min after mixing, as determined by the inversion test.

## COC(=O)C1=C(C(=O)OC)C2(CNC(=O)CCCC(=O)NCC34OC(C(C(=O)OC)=C3C(=O)OC)C3OC34)OC1C1OC12 (stereo not drawn) [Linker 8, Tetramethyl 1,1′-((glutaroylbis(azanediyl))bis(methylene))bis(3,8-dioxatricyclo[3.2.1.0^2,4]oct-6-ene-6,7-dicarboxylate)]
[1]
  Dye released from gel made with multiply-labeled 4-PEG-SH macromer: up to 50%
[2]
  Storage modulus G′ versus loss modulus G″: G″ was negligible in comparison with G′

## COC(=O)C1=C(C(=O)OC)C2(CNC(=O)CCCC(=O)NCC34C=CC(O3)C(C(=O)OC)=C4C(=O)OC)C=CC1O2 [Linker 7a, Tetramethyl 1,1′-((glutaroylbis(azanediyl))bis(methylene))bis(7-oxabicyclo[2.2.1]hepta-2,5-diene-2,3-dicarboxylate)]
[3]
  4-PEG-SH concentration giving instantaneous gelation: > 2.5 wt %
